Measurements taken from the NIST ThermoML archive (doi:10.1021/je2012555).
Numbers after ± are expanded uncertainties.

Tests used:
[1] = mn = molality of the nth substance listed, in mol/kg; settings: 101 kPa, Liquid; for mass density: Vibrating tube method
[2] = cn = amount concentration of the nth substance listed, in mol/dm3; settings: 298.15 K, 101 kPa, Liquid, Vibrating tube method

CNC(=O)[C@H](CC(C)C)NC(C)=O [(S)-2-acetamido-N,4-dimethylpentanamide] + O
[1]
Settings	apparent molar heat capacity [J/K/mol]	mass density [kg/m3]
298.15 K, m1 = 0.0463	681 ± 9.2	–
298.15 K, m1 = 0.04684	–	997.65 ± 0.064
298.15 K, m1 = 0.0559	682.8 ± 7.7	–
298.15 K, m1 = 0.07	682.5 ± 6.3	–
298.15 K, m1 = 0.08312	–	998.122 ± 0.064
298.15 K, m1 = 0.0936	680.2 ± 4.9	–
298.15 K, m1 = 0.09402	–	998.23 ± 0.064
298.15 K, m1 = 0.1007	–	998.343 ± 0.064
298.15 K, m1 = 0.108	–	998.407 ± 0.065
298.15 K, m1 = 0.1129	680 ± 4.4	–
298.15 K, m1 = 0.1157	–	998.565 ± 0.065
298.15 K, m1 = 0.13	–	998.75 ± 0.065
298.15 K, m1 = 0.1414	–	998.921 ± 0.064
298.15 K, m1 = 0.1423	681.9 ± 3.8	–
298.15 K, m1 = 0.1613	–	999.112 ± 0.064
303.15 K, m1 = 0.0463	683.5 ± 9.2	–
303.15 K, m1 = 0.0559	684.7 ± 7.7	–
303.15 K, m1 = 0.07	684.3 ± 6.3	–
303.15 K, m1 = 0.0936	682.6 ± 4.9	–
303.15 K, m1 = 0.1129	682.2 ± 4.4	–
303.15 K, m1 = 0.1423	684.4 ± 3.8	–
308.15 K, m1 = 0.0463	687.5 ± 9.2	–
308.15 K, m1 = 0.0559	688.6 ± 7.7	–
308.15 K, m1 = 0.07	687.3 ± 6.3	–
308.15 K, m1 = 0.0936	688.3 ± 5	–
308.15 K, m1 = 0.1129	686.7 ± 4.4	–
308.15 K, m1 = 0.1423	687.4 ± 3.8	–
313.15 K, m1 = 0.0463	690.1 ± 9.2	–
313.15 K, m1 = 0.0559	691.3 ± 7.7	–
313.15 K, m1 = 0.07	690.9 ± 6.3	–
313.15 K, m1 = 0.0936	690.3 ± 5	–
313.15 K, m1 = 0.1129	689.6 ± 4.4	–
313.15 K, m1 = 0.1423	691.1 ± 3.8	–
318.15 K, m1 = 0.0463	691.6 ± 9.2	–
318.15 K, m1 = 0.0559	692.3 ± 7.7	–
318.15 K, m1 = 0.07	692.3 ± 6.3	–
318.15 K, m1 = 0.0936	691.5 ± 5	–
318.15 K, m1 = 0.1129	691.7 ± 4.4	–
318.15 K, m1 = 0.1423	692.4 ± 3.8	–
323.15 K, m1 = 0.0463	693.1 ± 9.2	–
323.15 K, m1 = 0.0559	694.7 ± 7.7	–
323.15 K, m1 = 0.07	694.8 ± 6.3	–
323.15 K, m1 = 0.0936	693.4 ± 5	–
323.15 K, m1 = 0.1129	693.6 ± 4.4	–
323.15 K, m1 = 0.1423	694.8 ± 3.8	–
328.15 K, m1 = 0.0463	695.9 ± 9.2	–
328.15 K, m1 = 0.0559	696.8 ± 7.7	–
328.15 K, m1 = 0.07	696.9 ± 6.3	–
328.15 K, m1 = 0.0936	695.8 ± 5	–
328.15 K, m1 = 0.1129	697.5 ± 4.4	–
328.15 K, m1 = 0.1423	696.4 ± 3.8	–

CNC(=O)[C@H](Cc1cnc[nH]1)NC(C)=O [N-acetyl-N'-methyl-L-alpha-histidinamide] + O
[2]
Settings	mass density [kg/m3]
c1 = 0.03827	998.76 ± 0.079
c1 = 0.04755	999.201 ± 0.08
c1 = 0.04924	999.284 ± 0.073
c1 = 0.05453	999.47 ± 0.075
c1 = 0.05796	999.649 ± 0.079
c1 = 0.06518	999.989 ± 0.079
c1 = 0.0682	1000.14 ± 0.076
c1 = 0.07517	1000.41 ± 0.077
c1 = 0.07826	1000.59 ± 0.084
c1 = 0.09152	1001.16 ± 0.066
c1 = 0.0919	1001.16 ± 0.066
c1 = 0.09948	1001.49 ± 0.076
c1 = 0.1126	1002.02 ± 0.075
c1 = 0.1188	1002.28 ± 0.075

apparent molar heat capacity [J/K/mol], [1]
Settings	m1 = 0.0546	m1 = 0.0551	m1 = 0.0616	m1 = 0.0777	m1 = 0.091	m1 = 0.109	m1 = 0.1358	m1 = 0.137
298.15 K	595.6 ± 7.8	594.5 ± 7.7	600.5 ± 7	595.1 ± 5.7	596.7 ± 5	598.8 ± 4.3	598.5 ± 3.7	597.9 ± 3.7
303.15 K	606.8 ± 7.8	610.2 ± 7.7	612 ± 7	609.8 ± 5.7	608.7 ± 5	610.9 ± 4.3	612.6 ± 3.7	608 ± 3.7
308.15 K	621.8 ± 7.8	618.1 ± 7.8	620.9 ± 7	621.4 ± 5.7	619.4 ± 5	622.5 ± 4.3	621 ± 3.8	624.6 ± 3.7
313.15 K	634 ± 7.8	628.9 ± 7.8	631.6 ± 7	629.5 ± 5.7	635.5 ± 5	630.5 ± 4.3	637.1 ± 3.8	631.6 ± 3.8
318.15 K	640.4 ± 7.8	637 ± 7.8	642.3 ± 7	638 ± 5.7	640.8 ± 5	637.5 ± 4.4	638.9 ± 3.8	643.6 ± 3.8
323.15 K	648.2 ± 7.9	652 ± 7.8	651.7 ± 7	648.2 ± 5.7	646.7 ± 5	654 ± 4.4	650.6 ± 3.8	650.9 ± 3.8
328.15 K	657.3 ± 7.9	659.5 ± 7.8	657 ± 7.1	656.4 ± 5.8	656.4 ± 5	660.5 ± 4.4	660 ± 3.9	656 ± 3.8

CNC(=O)CNC(C)=O [2-acetamido-N-methylacetamide] + O
[1]
Settings	apparent molar heat capacity [J/K/mol]	mass density [kg/m3]
298.15 K, m1 = 0.04565	–	998.056 ± 0.067
298.15 K, m1 = 0.0479	328.9 ± 8.5	–
298.15 K, m1 = 0.05924	–	998.352 ± 0.066
298.15 K, m1 = 0.0715	328.6 ± 5.8	–
298.15 K, m1 = 0.07804	–	998.754 ± 0.066
298.15 K, m1 = 0.09293	–	999.062 ± 0.066
298.15 K, m1 = 0.0958	327.8 ± 4.4	–
298.15 K, m1 = 0.0987	–	999.177 ± 0.066
298.15 K, m1 = 0.1439	326 ± 3.1	–
298.15 K, m1 = 0.153	–	1000.32 ± 0.066
298.15 K, m1 = 0.1615	–	1000.5 ± 0.066
298.15 K, m1 = 0.1766	–	1000.79 ± 0.066
298.15 K, m1 = 0.1889	–	1001.04 ± 0.066
298.15 K, m1 = 0.1912	324 ± 2.4	–
303.15 K, m1 = 0.0479	334.9 ± 8.5	–
303.15 K, m1 = 0.0715	336.1 ± 5.8	–
303.15 K, m1 = 0.0958	334.3 ± 4.4	–
303.15 K, m1 = 0.1439	333.6 ± 3.1	–
303.15 K, m1 = 0.1912	330.6 ± 2.4	–
308.15 K, m1 = 0.0479	343 ± 8.5	–
308.15 K, m1 = 0.0715	343.3 ± 5.8	–
308.15 K, m1 = 0.0958	342.7 ± 4.4	–
308.15 K, m1 = 0.1439	343.1 ± 3.1	–
308.15 K, m1 = 0.1912	342.7 ± 2.4	–
313.15 K, m1 = 0.0479	349.6 ± 8.5	–
313.15 K, m1 = 0.0715	350 ± 5.8	–
313.15 K, m1 = 0.0958	349.6 ± 4.5	–
313.15 K, m1 = 0.1439	350.6 ± 3.1	–
313.15 K, m1 = 0.1912	350.9 ± 2.5	–
318.15 K, m1 = 0.0479	357 ± 8.5	–
318.15 K, m1 = 0.0715	358.4 ± 5.8	–
318.15 K, m1 = 0.0958	359.1 ± 4.5	–
318.15 K, m1 = 0.1439	358.2 ± 3.1	–
318.15 K, m1 = 0.1912	360 ± 2.5	–
323.15 K, m1 = 0.0479	360.1 ± 8.5	–
323.15 K, m1 = 0.0715	361.7 ± 5.8	–
323.15 K, m1 = 0.0958	361.6 ± 4.5	–
323.15 K, m1 = 0.1439	361.4 ± 3.1	–
323.15 K, m1 = 0.1912	363 ± 2.5	–
328.15 K, m1 = 0.0479	365.8 ± 8.5	–
328.15 K, m1 = 0.0715	366.7 ± 5.8	–
328.15 K, m1 = 0.0958	367.2 ± 4.5	–
328.15 K, m1 = 0.1439	369.7 ± 3.1	–
328.15 K, m1 = 0.1912	369.1 ± 2.5	–

CNC(=O)[C@H](C)NC(C)=O [(S)-2-acetamido-N-methylpropanamide] + O
[1]
Settings	apparent molar heat capacity [J/K/mol]	mass density [kg/m3]
298.15 K, m1 = 0.02067	–	997.447 ± 0.065
298.15 K, m1 = 0.04272	–	997.844 ± 0.066
298.15 K, m1 = 0.0448	431 ± 9.1	–
298.15 K, m1 = 0.0545	429.7 ± 7.6	–
298.15 K, m1 = 0.0683	431.5 ± 6.2	–
298.15 K, m1 = 0.0751	–	998.437 ± 0.066
298.15 K, m1 = 0.0909	429.6 ± 4.8	–
298.15 K, m1 = 0.1031	–	998.944 ± 0.065
298.15 K, m1 = 0.1226	–	999.278 ± 0.065
298.15 K, m1 = 0.1376	427.5 ± 3.3	–
298.15 K, m1 = 0.1431	–	999.644 ± 0.066
298.15 K, m1 = 0.1816	–	1000.36 ± 0.066
303.15 K, m1 = 0.0448	436.8 ± 9.2	–
303.15 K, m1 = 0.0545	437.5 ± 7.6	–
303.15 K, m1 = 0.0683	437.5 ± 6.2	–
303.15 K, m1 = 0.0909	437 ± 4.8	–
303.15 K, m1 = 0.1376	434.7 ± 3.3	–
308.15 K, m1 = 0.0448	444 ± 9.2	–
308.15 K, m1 = 0.0545	444.1 ± 7.6	–
308.15 K, m1 = 0.0683	442.3 ± 6.2	–
308.15 K, m1 = 0.0909	442.9 ± 4.8	–
308.15 K, m1 = 0.1376	442.4 ± 3.3	–
313.15 K, m1 = 0.0448	448 ± 9.2	–
313.15 K, m1 = 0.0545	447.7 ± 7.6	–
313.15 K, m1 = 0.0683	450.6 ± 6.2	–
313.15 K, m1 = 0.0909	450.6 ± 4.8	–
313.15 K, m1 = 0.1376	448.4 ± 3.3	–
318.15 K, m1 = 0.0448	453.6 ± 9.2	–
318.15 K, m1 = 0.0545	453.6 ± 7.6	–
318.15 K, m1 = 0.0683	453.3 ± 6.2	–
318.15 K, m1 = 0.0909	453.9 ± 4.8	–
318.15 K, m1 = 0.1376	453.5 ± 3.3	–
323.15 K, m1 = 0.0448	457.5 ± 9.2	–
323.15 K, m1 = 0.0545	458.3 ± 7.6	–
323.15 K, m1 = 0.0683	457.3 ± 6.2	–
323.15 K, m1 = 0.0909	458.2 ± 4.8	–
323.15 K, m1 = 0.1376	458 ± 3.4	–
328.15 K, m1 = 0.0448	459.8 ± 9.2	–
328.15 K, m1 = 0.0545	462.9 ± 7.6	–
328.15 K, m1 = 0.0683	462.4 ± 6.2	–
328.15 K, m1 = 0.0909	461.2 ± 4.8	–
328.15 K, m1 = 0.1376	461.5 ± 3.4	–
